Data taken from US20240226106A1, “INHIBITORS OF PLASMA KALLIKREIN” (SHIRE HUMAN GENETIC THERAPIES, INC., priority 2021, published 2024).
Where two headings read alike, the source gives them in different places.

Legend:
plasma kallikrein = biological target: T1, plasma kallikrein (Homo sapiens, UniProt P03952); assay: Neat human plasma assay (fluorogenic peptide), contact pathway-activated plasma; type: biochemical; settings: read-out: Human Plasma Assay: IC90
T1 construct: from tissue; host or cells: sodium citrate collected human plasma
Experimental: To analyze inhibition of plasma kallikrein in an ex vivo setting, the potency of compounds was measure in contact pathway-activated plasma assays. In a fluorogenic peptide substrate assay, test compounds dissolved in DMSO were added to sodium citrate collected human or rat plasma in a 96-well microplate. Alternatively, citrated plasma was collected from rats administered the compounds orally or by IV. 10 nM of human FXIIa (Enzyme Research Laboratories) diluted in PKa buffer (20 mM Tris-HCl, pH 7.5, 150 mM NaCl, 1 mM EDTA, 0.100 PEG-8000, and 0.1% Triton X-100) was added to the plasma, followed by the 100 μM of the profluorescent, synthetic plasma kallikrein substrate PFR-AMC (also diluted in PKa buffer). Final plasma concentration in the reaction was […]. Fluorescence was immediately monitored by excitation/emission wavelengths of 360 nm/480 nm respectively over a period of 5 minutes in a microplate reader. The resulting linear increase in fluorescence emission (reflecting PKa proteolysis of PFR-AMC substrate) was fit to extract a proteolytic rate (fluorescent units over time), and this rate was subsequently plotted against compound inhibitor concentration. Resulting plots were fit to a standard 4-parameter IC50/C90 equation to determine min/max values, IC50/90, and slope. All experimental steps were performed at room temperature.

[1] = biological target: human activated kallikrein enzyme (Homo sapiens, UniProt P03952); assay: Inhibition of human activated plasma kallikrein, fluorogenic peptide substrate (PFR-AMC), 500 pM enzyme format; type: biochemical; settings: 500 pM activated kallikrein, 30 min preincubation, 10 min reaction, room temperature, read-out: Primary Dose Response Assay: Average EC50
Method in brief: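 Enzyme at 500 pM with […] PFR-AMC in 20 mM Tris pH 7.5, 1 mM EDTA, 150 mM NaCl, 0.1% PEG-400, 0.1% Triton X-100. Inhibitor preincubated 30 min, then 10 min reaction at room temperature; AMC fluorescence read at 380 nm excitation/460 nm emission.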

[2] = citrated human plasma, 10 nM human FXIIa activation, 100 μM PFR-AMC, room temperature

T1 sequence (P03952 391-638 limits assumed): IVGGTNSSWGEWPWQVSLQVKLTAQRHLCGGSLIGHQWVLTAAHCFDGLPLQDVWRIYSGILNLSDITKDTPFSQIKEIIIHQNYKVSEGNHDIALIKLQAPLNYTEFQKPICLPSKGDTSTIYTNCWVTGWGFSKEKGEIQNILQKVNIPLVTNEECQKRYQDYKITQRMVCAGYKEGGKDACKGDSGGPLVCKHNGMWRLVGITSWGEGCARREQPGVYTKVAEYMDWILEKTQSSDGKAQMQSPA
T1 sequence (P03952 20-390 partner limits assumed): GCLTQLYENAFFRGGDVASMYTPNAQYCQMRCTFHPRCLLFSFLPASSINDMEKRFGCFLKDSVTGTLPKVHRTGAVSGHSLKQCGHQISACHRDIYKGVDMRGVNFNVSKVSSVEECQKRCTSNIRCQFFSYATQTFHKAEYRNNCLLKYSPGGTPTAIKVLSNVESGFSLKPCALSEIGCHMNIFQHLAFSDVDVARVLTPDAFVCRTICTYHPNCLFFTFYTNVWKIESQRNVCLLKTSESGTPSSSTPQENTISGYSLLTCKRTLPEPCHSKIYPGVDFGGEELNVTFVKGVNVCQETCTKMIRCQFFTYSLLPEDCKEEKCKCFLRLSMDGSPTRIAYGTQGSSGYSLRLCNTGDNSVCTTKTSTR
human activated kallikrein enzyme, sequence (P03952 391-638 limits assumed): as the sequence (P03952 391-638 limits assumed) above
human activated kallikrein enzyme, sequence (P03952 20-390 partner limits assumed): as the sequence (P03952 20-390 partner limits assumed) above

| Structure (SMILES) | IC90 (plasma kallikrein; [2]) | EC50 [1] | IC90 (plasma kallikrein) |
| --- | --- | --- | --- |
| Cc1ccnc([C@H]2C[C@@H]2C(=O)Nc2cc(OCc3cn4nc(C5CC5)cc(N5CC(=O)N(C)C5=O)c4n3)cnn2)n1 [Example 97, (1S,2S)—N-(5-((6-cyclopropyl-8-(3-methyl-2,4-dioxoimidazolidin-1-yl)imidazo[1,2-b]pyridazin-2-yl)methoxy)pyridazin-3-yl)-2-(4-methylpyrimidin-2-yl)cyclopropane-1-carboxamide] | < 500 nM | < 2.5 nM |  |
| Cc1ccnc([C@H]2C[C@@H]2C(=O)Nc2cc(NCc3cc(N4CC(=O)N(C)C4=O)c4ncc(C5CC5)cc4c3)ncn2)n1 [Example 98, (1S,2S)—N-(6-(((3-cyclopropyl-8-(3-methyl-2,4-dioxoimidazolidin-1-yl)quinolin-6-yl)methyl)amino)pyrimidin-4-yl)-2-(4-methylpyrimidin-2-yl)cyclopropane-1-carboxamide] | < 500 nM | < 2.5 nM |  |
| Cc1ccnc([C@H]2C[C@@H]2C(=O)Nc2cc(NCc3cc4cc(C5CC5)cc(N5CC(=O)N(C)C5=O)n4n3)nc(C)n2)n1 [Example 99, (1S,2S)—N-(6-(((5-cyclopropyl-7-(3-methyl-2,4-dioxoimidazolidin-1-yl)pyrazolo[1,5-a]pyridin-2-yl)methyl)amino)-2-methylpyrimidin-4-yl)-2-(4-methylpyrimidin-2-yl)cyclopropane-1-carboxamide] |  | < 2.5 nM | < 500 nM |
| Cc1ccnc([C@H]2C[C@@H]2C(=O)Nc2cc(OCc3cc4cc(C5CC5)cc(N5CC(=O)N(C)C5=O)n4n3)cnn2)n1 [Example 100, (1S,2S)—N-(5-((5-cyclopropyl-7-(3-methyl-2,4-dioxoimidazolidin-1-yl)pyrazolo[1,5-a]pyridin-2-yl)methoxy)pyridazin-3-yl)-2-(4-methylpyrimidin-2-yl)cyclopropane-1-carboxamide] |  | < 2.5 nM | < 500 nM |
| Cc1ccnc([C@H]2C[C@@H]2C(=O)Nc2cc(NCc3cc4cc(C5CC5)cc(N5CC(=O)N(C)C5=O)n4n3)ncn2)n1 [Example 101, (1S,2S)—N-(6-(((5-cyclopropyl-7-(3-methyl-2,4-dioxoimidazolidin-1-yl)pyrazolo[1,5-a]pyridin-2-yl)methyl)amino)pyrimidin-4-yl)-2-(4-methylpyrimidin-2-yl)cyclopropane-1-carboxamide] | < 500 nM | < 2.5 nM |  |
| Cc1ccnc([C@H]2C[C@@H]2C(=O)Nc2nncc(N[C@H](C)c3cc4cc(C5CC5)cc(N5CC6CC6C5=O)n4n3)n2)n1 (stereo partly drawn) [Example 105, (1S,2S)—N-(5-(((1R^•)-1-(5-cyclopropyl-7-(2-oxo-3-azabicyclo[3.1.0]hexan-3-yl)pyrazolo[1,5-a]pyridin-2-yl)ethyl)amino)-1,2,4-triazin-3-yl)-2-(4-methylpyrimidin-2-yl)cyclopropane-1-carboxamide] | < 500 nM | < 2.5 nM |  |
